US11034742B2, “Peptides with antibiotic potential against Mycobacterium tuberculosis” (LINNANE PHARMA AB, priority 2017, dated 2021)
“Also recorded” adds a separate entry of the source. Where two headings read alike, the source gives them in different places. Marks after values point to notes of the source that are not given here. Positions of bridges follow the written chain, without caps; N, C: chain ends. Residues, ends and D or L forms follow the SMILES beside them.

Assays:
M. tuberculosis = settings: Table 1; from Schon et al. 2009; cited from earlier work
[1] = system: M. tuberculosis H37Rv and TB2016/268; assay type: cell-based, Mycobacterium tuberculosis; settings: gold-labelled peptide, 6.3 μM
Cytotoxicity, MTT assay = assay type: cell-based, human; settings: human, primary human monocyte-derived macrophages; 6.3 μM peptide concentration; read-out: macrophage viability (MTT)
Method: (§1) Human venous blood mononuclear cells were obtained from healthy volunteers using a Lymphoprep density gradient (Axis-Shield, Oslo, Norway) according to the manufacturers instructions. To obtain pure monocytes, the cell suspension was applied to CD14 micro beads (MACS), washed and passed through magnetic column according to manufacturers description. The monocytes were counted (Sysmex), diluted in RPMI medium containing GM-CSF (50 ng/mL) and seeded in 96-well plates (10^5/well) for a week to differentiate into macrophages.
(§2) Primary macrophages were prepared from whole blood (see above). The medium was replaced with fresh medium containing 0, 6.3, 12.5, 25 or 100 μM peptides and incubated for 0, 1, 4 and 24 h in 5% CO2 atmosphere. For cytotoxicity measurement, 10 μl 3-(4,5-dimethylthiazol-2-yl)-2,5 diphenyltetrazolium bromide (MTT) solution (Sigma) was added to each well according to manufacturers instructions, and analyzed in a spectrophotometer at 580 nm.

[2] = system: primary human macrophages; experiment: Cytotoxicity, MTT assay; assay type: cell-based; settings: for macrophage viability (MTT): 6.3 μM peptide concentration; for toxicity to human cells / macrophages (in words): primary human macrophages
Method: as §1, §2

[3] = system: M. tuberculosis H37Rv and clinical isolate TB2016/268; assay type: cell-based, Mycobacterium tuberculosis
Cathepsin G = biological target: T1, Cathepsin G (Homo sapiens, UniProt P08311); experiment: Protease sensitivity assay, Cathepsin G; assay type: in vitro ADME; settings: 37° C., 6 h
T1 construct: purchased EMD Millipore
T1 sequence (P08311 21-244): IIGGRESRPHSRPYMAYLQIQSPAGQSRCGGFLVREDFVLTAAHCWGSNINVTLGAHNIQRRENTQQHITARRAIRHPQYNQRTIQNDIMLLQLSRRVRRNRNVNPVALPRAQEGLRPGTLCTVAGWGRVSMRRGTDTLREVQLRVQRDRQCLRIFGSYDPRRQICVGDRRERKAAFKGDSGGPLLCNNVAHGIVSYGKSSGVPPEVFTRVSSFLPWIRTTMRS
Method: (§3) The variant antimicrobial peptide of SEQ ID NO: 3 (1 μg) was incubated at 37° C. with human neutrophil elastase (HNE, 0.4 μg, 29 units/mg; Calbiochem (La Jolla, Calif.), Cathepsin G (0.4 μg, EMD Millipore) and human α-thrombin (0.4 μg Innovative Research) in a total volume of 20 μL for 6 h. Furthermore 2 μg of the variant antimicrobial peptide of SEQ ID NO: 3 was incubated with 0.4 μg of HNE for kinetic study of peptide degradations. The materials were analyzed on 10-20% precast SDS-PAGE Tris-Tricine gels (Life Technologies) and analyzed after staining with Coomassie Blue R-250. […]

[4] = biological target: T2, human neutrophil elastase (HNE) (Homo sapiens, UniProt P08246); experiment: Protease sensitivity assay, HNE; assay type: in vitro ADME; settings: isolated human neutrophil elastase (HNE), after 22 hours, 37° C., read-out: peptide breakdown by HNE
T2 construct: purchased Calbiochem (La Jolla, Calif.)
T2 sequence (P08246 30-267): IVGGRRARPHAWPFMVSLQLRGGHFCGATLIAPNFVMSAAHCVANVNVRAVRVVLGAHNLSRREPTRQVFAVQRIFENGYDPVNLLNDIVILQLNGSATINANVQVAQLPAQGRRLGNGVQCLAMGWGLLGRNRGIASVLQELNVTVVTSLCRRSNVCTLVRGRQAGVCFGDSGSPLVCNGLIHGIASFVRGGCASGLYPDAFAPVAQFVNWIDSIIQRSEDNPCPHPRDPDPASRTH
Method: as §3

M. tuberculosis H37Rv [5] = assay type: in vivo, BALB/c mice; settings: 0.83 mg
[6] = system: primary human macrophages; experiment: Cytotoxicity, PrestoBlue (reducing metabolites); assay type: cell-based; settings: 100 μM, 24 hours
Method: as §1
(§4) The variant antimicrobial peptide of SEQ ID NO: 3 cytotoxicity was further examined by PrestoBlue® and ATPlite™ assays. Primary macrophages were treated with 100 μM variant antimicrobial peptide of SEQ ID NO: 3 or 50 μM Staurosporine (S-4400, Sigma) for 24 hours. Cell viability was assessed with PrestoBlue® fluorescence (A13261, Thermo Scientific) and cellular ATP levels using ATPlite™ kit (#6016943, Perkin Elmer) compared to untreated control, according to the manufacturers' instructions.

[7] = system: primary human macrophages; experiment: Cytotoxicity, ATPlite (cellular ATP levels); assay type: cell-based; settings: 100 μM, 24 hours
Method: as §1, §4

M. tuberculosis H37Rv [8] = experiment: Murine TB model, lung histology and immunohistochemistry; set-up: species or system BALB/c mice; settings: mouse, in vivo
human α-thrombin = biological target: T3, human α-thrombin (Homo sapiens, UniProt P00734); experiment: Protease sensitivity assay, α-thrombin; assay type: in vitro ADME; settings: 37° C., 6 h
T3 construct: human α-thrombin (0.4 μg Innovative Research); purchased Innovative Research
Method: as §3

Row | SMILES | MIC (mg/L) (M. tuberculosis) | MIC (μM) (M. tuberculosis) | association of peptide with the mycobacterial membrane (TEM) [1] | viability at 6.3 µM (Cytotoxicity, MTT assay) | macrophage viability (MTT) [2] | toxicity to human cells / macrophages (in words) [2] | Mycobacterial killing efficiency [3] | peptide degradation by Cathepsin G (Cathepsin G) | metabolised at 22 h [4] | lung CFU reduction vs control animals (M. tuberculosis H37Rv [5]; five days of daily intra-tracheal treatment) | lung CFU reduction vs control animals (M. tuberculosis H37Rv [5]; three days of daily intra-tracheal treatment) | toxicity, reducing metabolites (PrestoBlue) [6] | toxicity, cellular ATP levels (ATPlite) [7] | lung tissue damage, inflammation, bacterial and neutrophil counts (IHC, H&E) (M. tuberculosis H37Rv [8]) | peptide degradation by human α-thrombin (human α-thrombin)
1 | CC[C@@H](CO)NCCN[C@@H](CC)CO [Ethambutol] | 5.0* mg/L | 24.5* μM | – | – | – | – | – | – | – | – | – | – | – | – | –
2 | NNC(=O)c1ccncc1 [Isoniazid] | 0.2* mg/L | 1.5* μM | – | – | – | – | – | – | – | – | – | – | – | – | –
3 | CC[C@H](C)[C@@H]1NC(=O)[C@H](CO)NC(=O)[C@H](CCCCN)NC(=O)[C@@H]2CSSC[C@@H](C(=O)N[C@@H](Cc3ccc(O)cc3)C(=O)O)NC(=O)[C@H](CCCCN)NC(=O)[C@@H]3CSSC[C@H](NC(=O)[C@H](CCC(N)=O)NC(=O)[C@H]([C@@H](C)CC)NC(=O)[C@H](CC(=O)O)NC(=O)[C@H](CC(=O)O)NC(=O)[C@H](CCC(=O)O)NC(=O)[C@H](CO)NC(=O)[C@H](Cc4c[nH]c5ccccc45)NC(=O)[C@@H]4CCCN4C(=O)CNC(=O)[C@H](CC(N)=O)NC(=O)[C@@H](NC(=O)CNC(=O)[C@H](Cc4ccccc4)NC(=O)CN)CSSC[C@H](NC(=O)[C@H](Cc4ccc(O)cc4)NC(=O)CNC(=O)CNC(=O)[C@H](CCCCN)NC(=O)[C@H](Cc4ccc(O)cc4)NC(=O)CNC(=O)[C@H](CCCCN)NC1=O)C(=O)N[C@@H](C)C(=O)N[C@@H](CCCNC(=N)N)C(=O)NCC(=O)NCC(=O)N[C@@H](Cc1ccccc1)C(=O)N[C@@H](C(C)C)C(=O)N3)C(=O)N[C@@H](Cc1c[nH]cn1)C(=O)N[C@@H](CC(N)=O)C(=O)N[C@@H](Cc1c[nH]cn1)C(=O)N2 [SEQ ID NO: 3] (H-GFGCNGPWSEDDIQCHNHCKSIKGYKGGYCARGGFVCKCY-OH; disulfide 4-30, 15-37, 19-39 (inferred); N-terminus and C-terminus assumed) | – | – | associated with the mycobacterial envelope within one hour of exposure and disrupted bacterial membranes; also recorded: associated with the mycobacterial membrane | 87.5% | 87.5% | not Toxic to Human Cells | 73.8% | only HNE showed peptide degradation | ~50% | 86% | 46% | did not show any toxicity | did not show any toxicity | less tissue damage, lower bacterial and neutrophil counts than infected controls; also recorded: low counts of both neutrophils and bacteria in the lungs | only HNE showed peptide degradation
4 | CC[C@H](C)[C@@H]1NC(=O)[C@H](C)NC(=O)[C@@H]2CSSC[C@H](NC(=O)CNC(=O)[C@H](Cc3ccccc3)NC(=O)CN)C(=O)N[C@@H](CC(N)=O)C(=O)NCC(=O)N3CCC[C@H]3C(=O)N[C@@H](Cc3c[nH]c4ccccc34)C(=O)N[C@@H](CO)C(=O)N[C@@H](CCC(=O)O)C(=O)N[C@@H](CC(=O)O)C(=O)N[C@@H](CC(=O)O)C(=O)N[C@@H]([C@@H](C)CC)C(=O)N[C@@H](CCC(N)=O)C(=O)N[C@H]3CSSC[C@H](NC(=O)[C@H](C(C)C)NC(=O)[C@H](Cc4ccccc4)NC(=O)CNC(=O)CNC1=O)C(=O)N[C@@H](CCCCN)C(=O)N[C@H](C(=O)N[C@@H](Cc1ccc(O)cc1)C(=O)O)CSSC[C@H](NC(=O)[C@H](Cc1c[nH]cn1)NC(=O)[C@H](CC(N)=O)NC(=O)[C@H](Cc1c[nH]cn1)NC3=O)C(=O)N[C@@H](CCCCN)C(=O)N[C@@H](CO)C(=O)N[C@@H]([C@@H](C)CC)C(=O)N[C@@H](CCCCN)C(=O)NCC(=O)N[C@@H](Cc1ccc(O)cc1)C(=O)N[C@@H](CCCCN)C(=O)NCC(=O)NCC(=O)N[C@@H](Cc1ccc(O)cc1)C(=O)N2 [SEQ ID NO: 4] (H-GFGCNGPWSEDDIQCHNHCKSIKGYKGGYCAIGGFVCKCY-OH; disulfide 4-30, 15-37, 19-39 (inferred); N-terminus and C-terminus assumed) | – | – | – | 86.3% | 86.3% | not Toxic to Human Cells | 74.8% | – | – | – | – | – | – | – | –
